Among the data in patent US20120238549A1, “Nuclear Hormone Receptor Modulators” (ABBOTT LABORATORIES, priority 2011, published 2012) are IC50 values, retold here.

The assay has as its target T1, Glucocorticoid Receptor (GR) (Homo sapiens, UniProt P04150).
T1 construct: purchased Invitrogen P2893
T1 sequence (P04150 1-777): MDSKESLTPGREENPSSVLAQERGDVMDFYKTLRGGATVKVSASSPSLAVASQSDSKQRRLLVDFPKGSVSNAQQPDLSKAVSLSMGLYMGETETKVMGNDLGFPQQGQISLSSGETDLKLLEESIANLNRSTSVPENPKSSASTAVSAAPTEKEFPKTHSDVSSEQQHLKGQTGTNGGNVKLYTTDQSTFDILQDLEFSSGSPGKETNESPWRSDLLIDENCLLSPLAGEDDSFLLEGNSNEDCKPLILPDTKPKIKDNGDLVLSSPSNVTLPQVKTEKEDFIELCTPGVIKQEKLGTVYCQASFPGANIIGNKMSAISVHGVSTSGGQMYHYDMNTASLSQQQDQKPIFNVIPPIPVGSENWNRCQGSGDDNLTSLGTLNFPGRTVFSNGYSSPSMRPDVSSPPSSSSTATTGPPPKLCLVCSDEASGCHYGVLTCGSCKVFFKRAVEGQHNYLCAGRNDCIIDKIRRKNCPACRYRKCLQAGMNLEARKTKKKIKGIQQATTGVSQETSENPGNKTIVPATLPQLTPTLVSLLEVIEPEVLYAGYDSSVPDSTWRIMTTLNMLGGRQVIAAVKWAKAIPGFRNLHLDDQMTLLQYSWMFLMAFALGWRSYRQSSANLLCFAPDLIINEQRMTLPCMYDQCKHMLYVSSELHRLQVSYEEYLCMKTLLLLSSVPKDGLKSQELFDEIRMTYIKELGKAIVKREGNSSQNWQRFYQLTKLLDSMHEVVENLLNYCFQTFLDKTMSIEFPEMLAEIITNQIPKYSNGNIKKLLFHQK
Description: GR Florescence Polarization Assay (PolarScreen Glucocorticoid Receptor Competitor Assay, Red). The following applies: Fluorescense polarization binding ranges; competition with fluorescent glucocorticoid, incubated overnight at 4° C. The procedure: GR Florescence Polarization Assay Florescence polarization assays were carried out using the PolarScreen™ Glucocorticoid Receptor Competitor Assay, Red from Invitrogen (P2893). The assay buffer was prepared according to the manufacturer's protocol and used to dilute the fluorescent glucocorticoid and GR. Compounds were prepared and serial diluted 1:4 in DMSO. Compound, fluorescent glucocorticoid and GR were added in a final volume of 20 μL and incubated overnight at 4° C. Fluorescent polarization was measured on the Perkinelmer Envision®.
For the compound `Cc1ncccc1NC(=O)c1ccc2c(c1)CCC[C@H]1C[C@@](O)(COC(C)C)CC[C@@]21Cc1ccccc1` (racemic) [Example 97], the IC50 (as a rule, the concentration that inhibits the measured activity by half) was less than 100 nM.

Take `O=C1CC[C@@]2(Cc3ccccc3)c3ccc(O)cc3CCC[C@@H]2C1.O=C1CC[C@]2(Cc3ccccc3)c3ccc(O)cc3CCC[C@H]2C1` [Example 5, (4aR,11bS)-11b-benzyl-9-hydroxy-1,2,4,4a,5,6,7,11b-octahydro-dibenzo[a,c]cyclohepten-3-one; compound with (4aS,11bR)-11b-benzyl-9-hydroxy-1,2,4,4a,5,6,7,11b-octahydro-dibenzo[a,c]cyclohepten-3-one]: the IC50 lay in the range of 100 to 1000 nM.

`CC[C@@]12C[C@@H](O)[C@](O)(c3ccccc3)C[C@@H]1CCCc1cc(C(=O)Nc3cccnc3C)ccc12` (single isomer, unassigned) [Example 124]: the IC50 is 1000 to 10000 nM.

In the case of `Cc1ncccc1NC(=O)c1ccc2c(c1)NC(=O)C[C@H]1CC(O)(C(F)(F)F)CC[C@@]21Cc1ccccc1` (stereo partly drawn) [Example 21, (7aR,11aS)-11a-Benzyl-9-hydroxy-N-(2-methylpyridin-3-yl)-6-oxo-9-(trifluoromethyl)-6,7,7a,8,9,10,11,11a-octahydro-5H-dibenzo[b,d]azepine-3-carboxamide], the IC50 was greater than 10000 nM.

`CC[C@@]1(O)CC[C@]2(Cc3ccccc3)c3c(cnn3C)CCC[C@@H]2C1.CC[C@]1(O)CC[C@@]2(Cc3ccccc3)c3c(cnn3C)CCC[C@H]2C1` [Example 39, (6aS,8S,10aS)-10a-Benzyl-8-ethyl-1-methyl-1,4,5,6,6a,7,8,9,10,10a-decahydro-1,2-diaza-benzo[e]azulen-8-ol; compound with (6aR,8R,10aR)-10a-benzyl-8-ethyl-1-methyl-1,4,5,6,6a,7,8,9,10,10a-decahydro-1,2-diaza-benzo[e]azulen-8-ol] returned an IC50 greater than 10000 nM.

As for `CC[C@@]1(O)CC[C@@]2(Cc3ccccc3)c3ccc(C(=O)Nc4cccnc4C)cc3C(=O)OC[C@H]2C1` [Example 112, (7aS,9R,11aS)-11a-Benzyl-9-ethyl-9-hydroxy-N-(2-methylpyridin-3-yl)-5-oxo-5,7,7a,8,9,10,11,11a-octahydrodibenzo[c,e]oxepine-3-carboxamide], the IC50 lay in the range of 100 to 1000 nM.

With `CCC[C@@]1(O)CC[C@@]2(CC)c3ccc(C(=O)Nc4cccnc4C)cc3C=CC[C@H]2C1` (racemic) [Example 128, (7aS,9R,11aR)-11a-Ethyl-9-hydroxy-9-propyl-7a,8,9,10,11,11a-hexahydro-7H-dibenzo[a,c]cycloheptene-3-carboxylic acid (2-methyl-pyridin-3-yl)-amide compound with (7aR,9S,11aS)-11a-ethyl-9-hydroxy-9-propyl-7a,8,9,10,11,11a-hexahydro-7H-dibenzo[a,c]cycloheptene-3-carboxylic acid (2-methyl-pyridin-3-yl)-amide], the IC50 is less than 100 nM.

The compound `Cc1ncccc1NC(=O)c1ccc2c(c1)C(=O)OC[C@@H]1C[C@@](O)(C(F)(F)F)CC[C@@]21Cc1ccccc1` [Example 115, (7aR,9R,11aS)-11a-Benzyl-9-hydroxy-N-(2-methylpyridin-3-yl)-5-oxo-9-(trifluoromethyl)-5,7,7a,8,9,10,11,11a-octahydrodibenzo[c,e]oxepine-3-carboxamide] registered an IC50 of 100 to 1000 nM.

Compound `CC[C@@]1(O)CC[C@@]2(CC)c3ccc(C(=O)Nc4cccnc4C)cc3CCC[C@H]2C1` [Example 47] registered an IC50 of less than 100 nM.

In the case of `CCC[C@@]1(O)CC[C@@]2(CC)c3ccc(C(=O)Nc4cccnc4C)cc3COC[C@H]2C1` (single isomer, unassigned) [Example 138], the IC50 was less than 100 nM.
